According to US4340602A, “Compositions inhibiting estrogen sulfotransferase activity” (Wayne State University, priority 1978, dated 1982):
pKi: −log10 of the molar value. Where two headings read alike, the source gives them in different places.

Tests used:
[1] = target: T1, Bovine Adrenal Estrogen Sulfotransferase (Bos taurus, UniProt P19217); assay: Inhibition of bovine adrenal estrogen sulfotransferase (estrone sulfurylation); type: biochemical
T1 construct: The enzyme was isolated from the bovine adrenals; from tissue; host or cells: bovine adrenals; purified by ammonium sulfate fractionation and chromatography on DEAE-cellulose or DEAE-Sephadex A-50
T1 sequence (P19217 1-295): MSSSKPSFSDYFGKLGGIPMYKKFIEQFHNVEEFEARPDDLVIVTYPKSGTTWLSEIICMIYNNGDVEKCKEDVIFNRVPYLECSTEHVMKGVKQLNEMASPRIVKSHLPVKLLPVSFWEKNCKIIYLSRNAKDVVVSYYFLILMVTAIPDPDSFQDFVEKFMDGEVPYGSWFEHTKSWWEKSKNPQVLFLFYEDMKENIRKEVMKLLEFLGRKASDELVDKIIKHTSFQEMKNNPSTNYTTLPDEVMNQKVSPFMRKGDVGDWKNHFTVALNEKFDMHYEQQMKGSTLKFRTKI
Experimental: Materials are evaluated for activity as estrogen sulfotransferase inhibitors by the method of Rozhin et al, Journal of Biological Chemistry, 252:7214-7220 (October 25, 1977), herein incorporated by reference.
Isolation of Estrogen Sulfotransferase (EC 2.8.2.4). The enzyme was isolated from the bovine adrenals and purified by ammonium sulfate fractionation and column chromatography on DEAE-cellulose or DEAE-SephadexA-50 [Rozhin et al (1974)].
Standard Enzyme Assay. The incubation mixtures contained the following in a total volume of 0.2 ml: 0.4 mM P-Ado-PS; 2 to 23 μM estrone (3-hydroxy-1,3,5(10)-estratriene-17-one), 5×10^5 dpm of [6,7-^3 H]estrone; 5 mM magnesium acetate; 0.19 M Tris/HCl buffer (pH 8.1 at 37°); 5 ug of the enzyme; and 25 μM dithiothreitol. After a 10-min incubation (in the presence of a constant amount of inhibitor and a variable amount of estrone), the boiled mixtures were supplemented with 5 μg of aqueous estrone sulfate. The remaining [^3 H]estrone was extracted three times with 0.3 ml of ethyl ether. The residual ether was removed and the volume adjusted to 0.5 ml with methanol. A sample (25 μl) was applied, together with 10 μg of methanolic estrone sulfate marker, to type SG chromatography media (Gelman Instrument Co., Ann Arbor, Mich.), and developed with chloroform/acetone/acetic acid (110:35:6). After drying the sheet, samples were visualized by spraying with methylene blue (25 mg in 100 ml of 0.05 N H2 SO4), punched out with a cork borer, and counted in 10 ml of dioxane counting liquid. A blank employing a boiled enzyme sample was incubated and the recorded counts were substracted from each determination. The total corrected counts, representing steroid sulfate ester, were converted to nanomoles utilizing the specific activity of [^3 H]estrone. An enzyme unit was defined as that quantity of enzyme which synthesized 1 nmol of estrone sulfate in 1 min under chosen conditions. […] When nonsubstrate steroids were used as the inhibitors, the procedure for the enzyme assay was as described earlier [Rozhin et al (1974)], utilizing 5 μg of enzyme, P-Ado-[^35 S]PS, and unlabeled estrone.
Data Processing. The initial velocity analysis was carried out keeping the concentration of P-Ado-PS at saturation level, varying the estrone concentration and keeping the concentration of the inhibitor at a fixed level. Preliminary plots of the data were made in the double reciprocal form (l/v versus l/[S]), and in the form of replots of slopes (and intercepts) versus inhibitor concentration. On the basis of these plots, the proper inhibition pattern was chosen for each experiment and the data points were fitted to the appropriate equation.
Linear competitive inhibition: [formula]
Hyperbolic competitive inhibition: [formula]
Slope-parabolic non-competitive inhibition: [formula]
All calculations were performed using Cleland's Fortran programs (Adv. Enzymol., 29:1-32). The programs gave the values of Km, Vmax, and inhibition constants.
Fractional Inhibition. From kinetic experiments, Ki was calculated as described above under "Data Processing" after making replots of slopes (and/or intercepts) versus inhibitor concentration. […] Substituting v and vi from the corresponding rate equations in the absence of (v=(Vmax [S])/(Km +[S])) and presence of a (competitive) inhibition (Equation 1), the following relationship for FI is obtained: [formula] After substituting [S], Km, and [I] (see above), the equation for the fractional (competitive) inhibition simplifies to: [formula] and the mathematical relationship between FI and Ki of competitive inhibitors is represented by the continuous curve in FIG. 2 in Rozhin et al., J. Biol. Chem., 252, 7214-7220, 1977. The dashed line represents the relationship between FI and the Ki of pure noncompetitive inhibition derived mathematically in an analogous manner and expressed as [formula] Since [I]=22.2 μM, [formula]

[2] = test system: 17β-estradiol receptor (rabbit uterus 100,000×g supernatant); assay: Competitive binding: effect on binding of 17β-estradiol (E2) by rabbit uterine tissue; conditions: 2000-fold excess; 0.7 nM tritiated 17β-estradiol; 2 h on ice
Experimental: Competitive binding experiments were carried out utilizing the 100,000×g supernatant from rabbit uterus maintained at 4° C. Unlabeled competitive estrogens were added to the incubation 10 min. before tritiated 17β-estradiol. Incubations were carried out in quadruplicate for 2 h on ice. [2,4,6,7-^3 H]-17-Estradiol was added to 0.5 ml of supernatant (0.69 mg protein) at a concentration of 0.7 nM. Radioactivity in the bound 17β-estradiol was assayed by the dextran-coated charcoal (1:10) procedure.

[3] = test system: estrogen sulfotransferase; assay: Blocking of estrogen sulfotransferase activity by 3-methoxy-4-nitroestrone (Example 4); type: biochemical; conditions: molar ratio of 10:1
[4] = pH 8.1, read-out: Fractional Inhibition (Table II)
[5] = inhibitors 2 to 4 and 9 to 12; from kinetic experiments; read-out: Ki (Table II), not among those calculated
[6] = pH 8.1; read-out: Fractional Inhibition (Table II)
[7] = inhibitors 2, 7 and 8; competitive inhibition equation; read-out: Ki (Table I), calculated from fractional inhibition (competitive inhibition)
[8] = pH 8.1; read-out: Fractional Inhibition (Table I)
[9] = pH 8.1, read-out: Fractional Inhibition (Table I)
[10] = inhibitors 3 to 6, 12 and 16; from kinetic experiments; read-out: Ki (Table I), determined experimentally
[11] = inhibitors 1 and 5 to 8; calculated from fractional inhibition; read-out: Ki (Table II), calculated from Equation 4 (competitive inhibition)

C[C@]12CC[C@@H]3c4ccc(O)cc4CC[C@H]3[C@@H]1C[C@@H](O)[C@@H]2O [1,3,5(10)Estratriene-3,16α,17β-triol]
pKi [1]: 5.09 | inhibition at 22.2 µM [1, 4]: 66%

C[C@]12CC[C@@H]3c4ccc(O)cc4CC[C@H]3[C@@H]1C[C@@H](O)C2 [1,3,5(10)Estratriene-3,16α-diol]
pKi [1, 5]: 5.89 | inhibition at 22.2 µM [1, 6]: 89%

C[C@]12CC[C@@H]3c4ccc(O)cc4CC[C@H]3[C@@H]1C[C@H](O)[C@@H]2O [1,3,5(10)Estratriene-3,16β,17β-triol]
pKi [1]: 5.26 | inhibition at 22.2 µM [1, 4]: 72%

CC(=O)Oc1ccc2c(c1)CC[C@@H]1[C@@H]2CC[C@]2(C)[C@@H](O)CC[C@@H]12 [1,3,5(10)Estratriene-3,17β-diol-3-acetate]
pKi [1, 7]: 4.77 | inhibition at 22.2 µM [1, 8]: 39%

C[C@]12CC[C@@H]3c4ccc(OC(=O)c5ccccc5)cc4CC[C@H]3[C@@H]1CC[C@@H]2O [1,3,5(10)Estratriene-3,17β-diol-3-benzoate]
pKi [1]: 4.05 | inhibition at 22.2 µM [1, 9]: 11%

C[C@@]12CCC[C@H]1[C@@H]1CCc3cc(O)ccc3[C@H]1CC2 [1,3,5(10)Estratriene-3-ol]
pKi [1, 10]: 5.46 | inhibition at 22.2 µM [1, 8]: 67%

C[C@]12CC[C@@H]3c4ccccc4CC[C@H]3[C@@H]1CC[C@@H]2O [1,3,5(10)Estratriene-17β-ol]
pKi [1, 7]: 4.80 | inhibition at 22.2 µM [1, 8]: 41%

C[C@@]12CCC[C@H]1[C@@H]1CCc3ccccc3[C@H]1CC2 [1,3,5(10)Estratriene]
inhibition at 22.2 µM [1, 8]: 0%

C[C@]12CC[C@@H]3c4cc(Br)c(O)c(Br)c4CC[C@H]3[C@@H]1CC[C@@H]2O [2,4-Dibromo-1,3,5(10)estratriene-3,17β-diol]
pKi [1, 11]: 6.96 | inhibition at 22.2 µM [1, 6]: 99%

C[C@]12CC[C@@H]3c4cc([N+](=O)[O-])c(O)c([N+](=O)[O-])c4CC[C@H]3[C@@H]1CC[C@@H]2O [2,4-Dinitro-1,3,5(10)estratriene-3,17β-diol]
pKi [1]: 5.37 | inhibition at 22.2 µM [1, 4]: 72%

C[C@]12CC[C@@H]3c4cc(N)c(O)cc4CC[C@H]3[C@@H]1CC[C@@H]2O [2-Amino-1,3,5(10)estratriene-3,17β-diol]
pKi [1, 11]: 5.46 | inhibition at 22.2 µM [1, 6]: 76%

C[C@]12CC[C@@H]3c4cc([N+](=O)[O-])c(O)cc4CC[C@H]3[C@@H]1CC[C@@H]2O [2-Nitro-1,3,5(10)estratriene-3,17β-diol]
pKi [1, 5]: 5.62 | inhibition at 22.2 µM [1, 6]: 80%

C[C@]12CC[C@@H]3c4ccc(O)cc4C(=O)C[C@H]3[C@@H]1CC[C@@H]2O [3,17β-Dihydroxy-1,3,5(10)-estratriene-6-one]
pKi [1]: 5.26 | inhibition at 22.2 µM [1, 4]: 69%

C[C@]12CC[C@@H]3c4ccc(O)cc4CC[C@H]3[C@@H]1CCC2=O [3-Hydroxy-1,3,5(10)estratriene-17-one]
pKi [1]: 5.31 | inhibition at 22.2 µM [1, 8]: 65%

COc1ccc2c(c1)CC[C@@H]1[C@@H]2CC[C@]2(C)[C@@H](O)CC[C@@H]12 [3-Methoxy-1,3,5(10)estratriene-17β-ol]
pKi [1, 10]: 5.32 | inhibition at 22.2 µM [1, 8]: 61%

COc1ccc2c(c1[N+](=O)[O-])CC[C@@H]1[C@@H]2CC[C@]2(C)C(=O)CC[C@@H]12 [3-Methoxy-4-NO2-1,3,5(10)-estratriene-17-one]
pKi [1, 11]: 5.37 | inhibition at 22.2 µM [1, 6]: 72% | blocking of binding of 17β-estradiol to its receptor [2]: not blocked | blocked activity of estrogen sulfotransferase [3]: > 90%

C[C@]12CC[C@H](O)CC1=CC[C@@H]1[C@@H]2CC[C@]2(C)C(=O)CC[C@@H]12 [3β-Hydroxy-5-androstene-17-one]
pKi [1]: 3.77 | inhibition at 22.2 µM [1, 9]: 21%

C[C@]12CC[C@H](O)C[C@H]1CC[C@@H]1[C@@H]2CC[C@]2(C)C(=O)CC[C@@H]12 [3β-Hydroxy-5β-androstane-17-one]
pKi [1]: 3.52 | inhibition at 22.2 µM [1, 9]: 13%

C[C@]12CC[C@@H]3c4ccc(O)c(N)c4CC[C@H]3[C@@H]1CC[C@@H]2O [4-Amino-1,3,5(10)estratriene-3,17β-diol]
pKi [1, 11]: 5.46 | inhibition at 22.2 µM [1, 6]: 76%

C[C@]12CC[C@@H]3c4ccc(O)c([N+](=O)[O-])c4CC[C@H]3[C@@H]1CC[C@@H]2O [4-Nitro-1,3,5(10)estratriene-3,17β-diol]
pKi [1, 5]: 6.82 | inhibition at 22.2 µM [1, 6]: 98%

C[C@]12CC[C@H]3[C@@H](CC=C4C[C@@H](O)CC[C@@]43C)[C@@H]1CC[C@@H]2O [5-Androstene-3β,17β-diol]
pKi [1]: 4.46 | inhibition at 22.2 µM [1, 9]: 39%

C[C@@]12CCC[C@H]1[C@@H]1CC=C3C[C@@H](O)CC[C@]3(C)[C@H]1CC2 [5-Androstene-3β-ol]
pKi ([1]; inhibitors 10, 11 and 13 to 15; Equation 5 (noncompetitive); read-out: Ki (Table I), calculated from fractional inhibition (noncompetitive inhibition)): 4.30 | inhibition at 22.2 µM [1, 8]: 31%

C[C@@]12CCC[C@H]1[C@@H]1CC=C3CCCC[C@]3(C)[C@H]1CC2 [5-Androstene]
inhibition at 22.2 µM [1, 8]: 0% | estrogen sulfotransferase inhibition, in words ([1]; summary statement): inactive

C[C@]12CC[C@H](O)C[C@@H]1CC[C@@H]1[C@@H]2CC[C@]2(C)[C@@H](O)CC[C@@H]12 [5α-Androstane-3β,17β-diol]
pKi [1]: 4.33 | inhibition at 22.2 µM [1, 9]: 32%

C[C@]12CCC(=O)C[C@@H]1CC[C@@H]1[C@@H]2CC[C@]2(C)[C@@H](O)CC[C@@H]12 [17β-Hydroxy-5α-androstane-3-one]
pKi [1]: 4.42 | inhibition at 22.2 µM [1, 9]: 37%

C[C@]12CCC(=O)C[C@H]1CC[C@@H]1[C@@H]2CC[C@]2(C)[C@@H](O)CC[C@@H]12 [17β-Hydroxy-5β-androstane-3-one]
pKi [1]: 4.13 | inhibition at 22.2 µM [1, 9]: 23%
